Assay results reported in PMC10652874, “Investigation into the mechanism of action of the antimicrobial peptide epilancin 15X” (Frontiers in Microbiology, 2023).

System: S. carnosus TM300
Assay: RNAseq differential gene expression
Format: cell-based, Staphylococcus carnosus
Procedure: For the RNAseq experiments, epilancin was added at sub-lethal concentration (0.5x MIC) to S. carnosus TM300 once the cultures reached an OD600 of 0.6. RNA was extracted 40 min after the treatment, using a FastRNA Pro Blue kit (MP Biomedicals). Both treated and parallel untreated samples were collected at the same time. Sequencing was performed at the Carver Biotechnology Center (UIUC). For RNAseq analysis, gene counts were read in to R (v3.1.1; [Team, 2014]), and 14/2441 genes were removed because they had fewer than 32 total counts across the six samples. edgeR’s (v3.6.7) TMM normalization ([Robinson and Oshlack, 2010]) plus negative binomial generalized log-linear model ([McCarthy et al., 2012]) was used to test for differential expression between treated and untreated groups, while accounting for pairing of U and T replicates from three different cultures. p-values were adjusted using the false discovery rate method ([Benjamini and Hochberg, 1995]).

[1] = AraC family transcriptional regulator
[2] = S. carnosus TM300, 0.5x MIC, RNA extracted 40 min after treatment

Epilancin 15X was tested. Which “fold_change Sca_0118” value did it give?
Its value is 2.03.

What about the “fold_change Sca_0226” value of the same substance?
The value was 2.6.

What about the “fold_change Sca_0277” value of the same substance?
Its value is 4.82.

And the “fold_change Sca_0326” value?
Its value is 2.89.

And the “fold_change Sca_0702” value?
The value was 3.4.

What about the “fold_change Sca_1839” value of the same substance?
Its value is 2.65.

What about the “fold_change Sca_0283” value (4-aminobutyrate aminotransferase) of the same substance?
Its value is 2.6.

And the “fold_change Sca_1048” value (5-bromo-4-chloroindolyl phosphate hydrolysis protein XpaC)?
Its value is 2.07.

And the “fold_change rpsN” value (30S ribosomal protein S14)?
The value was 0.49.

What about the “fold_change rplS” value (50S ribosomal protein L19) of the same substance?
Its value is 0.5.

And the “fold_change Sca_1439” value (ABC transporter ATP-binding protein)?
Its value is 2.23.

And the “fold_change Sca_0292” value (ATP-binding cassette transporter A)?
The value was 2.29.

And the “fold_change clpP” value (ATP-dependent Clp protease proteolytic subunit)?
Its value is 5.08.

What about the “fold_change recG” value (ATP-dependent DNA helicase RecG) of the same substance?
Its value is 2.72.

What about the “fold_change Sca_0180” value (ATP:guanido phosphotransferase) of the same substance?
Its value is 4.91.

What about the “fold_change Sca_0313” value [1] of the same substance?
The value was 2.06.

What about the “fold_change Sca_0314” value [1] of the same substance?
Its value is 2.39.

What about the “fold_change Sca_0315” value [1] of the same substance?
Its value is 2.4.

What about the “fold_change Sca_0113” value (ArsR family transcription regulator) of the same substance?
The value was 4.25.

What about the “fold_change clpB” value (ClpB chaperone) of the same substance?
The value was 10.1.

And the “fold_change clpC” value (ClpC ATPase family protein)?
Its value is 4.95.

What about the “fold_change dltA” value (D-alanine--poly(phosphoribitol) ligase subunit 1) of the same substance?
The value was 2.2.

And the “fold_change dltC” value (D-alanine--poly(phosphoribitol) ligase subunit 2)?
The value was 2.03.

And the “fold_change dnaN” value (DNA polymerase III subunit beta)?
The value was 2.14.

And the “fold_change dinB” value (DNA polymerase IV, gene dinP)?
The value was 2.92.

And the “fold_change dltB” value (DltB membrane protein)?
The value was 2.19.

What about the “fold_change Sca_2272” value (Glycerate kinase) of the same substance?
Its value is 2.24.

And the “fold_change Sca_0776” value (Glyoxalase family protein)?
The value was 2.76.

And the “fold_change hslO” value (Hsp33-like chaperonin, gene hsp33)?
The value was 2.39.

What about the “fold_change Sca_0214” value (LD-carboxypeptidase family protein) of the same substance?
Its value is 0.5.

And the “fold_change lexA” value (LexA repressor)?
Its value is 2.01.

What about the “fold_change Sca_0115” value (LysR family transcriptional regulator) of the same substance?
Its value is 2.11.

And the “fold_change moaD” value (MoaD)?
The value was 2.46.

And the “fold_change moaE” value (MoaE)?
Its value is 2.53.

What about the “fold_change mobB” value (MobB) of the same substance?
Its value is 2.72.

And the “fold_change moaA” value (Molybdenum cofactor biosynthesis protein A)?
The value was 2.82.

And the “fold_change nanA” value (N-acetylneuraminate lyase)?
The value was 2.13.

What about the “expression of vraR, upregulated compared to untreated control” value [2] of the same substance?
The value was 8 fold.

What about the “expression of vraS, upregulated compared to untreated control” value [2] of the same substance?
Its value is 8 fold.

And the “fold_change Sca_0453” value (TOPRIM domain-containing protein)?
The value was 3.05.

What about the “fold_change Sca_2234” value (TetR family transcriptional regulator) of the same substance?
Its value is 2.13.

And the “fold_change Sca_2397” value (ThiJ/PfpI family protein)?
The value was 4.76.

And the “fold_change gtaB” value (UTP-glucose-1-phosphate uridyltransferase)?
The value was 0.5.

And the “fold_change Sca_0065” value (acetoin reductase)?
Its value is 4.35.

What about the “fold_change mecA” value (adaptor protein, gene SCA_0598) of the same substance?
The value was 2.48.

What about the “fold_change glpD” value (aerobic glycerol-3-phosphate dehydrogenase) of the same substance?
The value was 2.81.

And the “fold_change Sca_2335” value (alcohol dehydrogenase, zinc-containing, gene gutB)?
The value was 2.81.

And the “fold_change ahpC” value (alkyl hydroperoxide reductase subunit C)?
Its value is 5.8.

What about the “fold_change ahpF” value (alkyl hydroperoxide reductase subunit F) of the same substance?
Its value is 5.74.

What about the “fold_change lrgB” value (antiholin-like protein LrgB) of the same substance?
Its value is 5.42.

And the “fold_change capM” value (capsular polysaccharide synthesis enzyme Cap5M)?
Its value is 0.49.

And the “fold_change katA” value (catalase)?
Its value is 2.04.

And the “fold_change dnaJ” value (chaperone protein DnaJ)?
The value was 2.06.

And the “fold_change uvrA” value (excinuclease ABC subunit A)?
The value was 3.06.

What about the “fold_change uvrB” value (excinuclease ABC subunit B) of the same substance?
Its value is 3.63.

And the “fold_change uvrC” value (excinuclease ABC subunit C)?
The value was 2.28.

What about the “fold_change Sca_1475” value (formate dehydrogenase) of the same substance?
The value was 2.72.

And the fold_change fdh (formate dehydrogenase)?
Its fold_change fdh is 3.34.

And the fold_change (gene SCA_0282 (thrS), threonyl-tRNA synthetase)?
The fold_change was 0.44.

And the fold_change (gene Sca_0027 (ssb), putative single-strand DNA-binding protein)?
The fold_change was 0.48.

What about the fold_change (gene Sca_0095, putative autolysin with LysM domain) of the same substance?
The fold_change was 0.47.

And the fold_change (gene Sca_0210, Choloylglycine hydrolase family protein)?
Its fold_change is 0.42.

What about the fold_change (gene Sca_0261, FecCD transport family protein) of the same substance?
The fold_change was 0.48.

And the fold_change (gene Sca_0273, putative lipoprotein, AdhesinB family protein)?
The fold_change was 0.41.

What about the fold_change (gene Sca_0274, putative ABC transporter permease) of the same substance?
Its fold_change is 0.44.

And the fold_change (gene Sca_0348 (fruA), putative fructose specific permease)?
The fold_change was 0.49.

What about the fold_change (gene Sca_0374, putative proton-dependent oligopeptide transporter) of the same substance?
Its fold_change is 0.43.

What about the fold_change (gene Sca_0418, putative branched-chain amino acid transport system II carrier protein) of the same substance?
The fold_change was 0.4.

And the fold_change (gene Sca_0437 (csp), putative cold-shock protein)?
Its fold_change is 0.43.

What about the fold_change (gene Sca_0445, hypothetical protein) of the same substance?
Its fold_change is 0.43.

What about the fold_change (gene Sca_0446, hypothetical protein) of the same substance?
Its fold_change is 0.45.

What about the fold_change (gene Sca_0547, cytosol aminopeptidase family protein) of the same substance?
Its fold_change is 0.42.

What about the fold_change (gene Sca_0617, hypothetical protein) of the same substance?
The fold_change was 0.45.

What about the fold_change (gene Sca_0626, putative sodium transport protein) of the same substance?
The fold_change was 0.4.

And the fold_change (gene Sca_0661)?
The fold_change was 0.41.

And the fold_change (gene Sca_0724, putative DNA binding protein)?
Its fold_change is 0.44.

What about the fold_change (gene Sca_0743, hypothetical protein) of the same substance?
Its fold_change is 0.4.

What about the fold_change (gene Sca_0749, hypothetical protein) of the same substance?
Its fold_change is 0.48.

What about the fold_change (gene Sca_0919, hypothetical protein) of the same substance?
The fold_change was 0.44.

And the fold_change (gene Sca_0920, hypothetical protein)?
Its fold_change is 0.46.

What about the fold_change (gene Sca_0975, putative amino acid permease) of the same substance?
The fold_change was 0.46.

And the fold_change (gene Sca_0984, hypothetical protein)?
The fold_change was 0.41.

What about the fold_change (gene Sca_1053, hypothetical protein) of the same substance?
The fold_change was 0.47.

What about the fold_change (gene Sca_1134, hypothetical protein) of the same substance?
The fold_change was 0.45.

What about the fold_change (gene Sca_1194, hypothetical protein) of the same substance?
The fold_change was 0.48.

What about the fold_change (gene Sca_1195) of the same substance?
Its fold_change is 0.43.

And the fold_change (gene Sca_1364 (leuS''), leucyl-tRNA synthetase (fragment 2))?
Its fold_change is 0.47.

What about the fold_change (gene Sca_1365 (leuS'), leucyl-tRNA synthetase (fragment 1)) of the same substance?
Its fold_change is 0.4.

What about the fold_change (gene Sca_1388, hypothetical protein) of the same substance?
Its fold_change is 0.46.

And the fold_change (gene Sca_1421, hypothetical protein)?
The fold_change was 0.46.

And the fold_change (gene Sca_1425, hypothetical protein)?
Its fold_change is 0.45.

What about the fold_change (gene Sca_1427, hypothetical protein) of the same substance?
Its fold_change is 0.41.

And the fold_change (gene Sca_1433, hypothetical protein)?
The fold_change was 0.44.

What about the fold_change (gene Sca_1450, hypothetical protein) of the same substance?
The fold_change was 0.41.

What about the fold_change (gene Sca_1584, hypothetical protein) of the same substance?
The fold_change was 0.47.

And the fold_change (gene Sca_1777, hypothetical protein)?
Its fold_change is 0.41.

What about the fold_change (gene Sca_1794, hypothetical protein) of the same substance?
Its fold_change is 0.43.

And the fold_change (gene Sca_1832, hypothetical protein)?
The fold_change was 0.42.

And the fold_change (gene Sca_1870, hypothetical protein)?
The fold_change was 0.45.

And the fold_change (gene Sca_1880, hypothetical protein)?
Its fold_change is 0.46.

And the fold_change (gene Sca_1922, putative integral membrane efflux protein)?
Its fold_change is 0.41.

What about the fold_change (gene Sca_1980, putative L-serine dehydratase beta chain) of the same substance?
The fold_change was 0.42.

And the fold_change (gene Sca_1997, hypothetical protein)?
Its fold_change is 0.49.

What about the fold_change (gene Sca_2043, hypothetical protein) of the same substance?
Its fold_change is 0.46.

What about the fold_change (gene Sca_2184, hypothetical protein) of the same substance?
Its fold_change is 0.4.

And the fold_change (gene Sca_2345, hypothetical protein)?
The fold_change was 0.41.

What about the fold_change (gene Sca_2346, putative capsular polysaccharide biosynthesis protein) of the same substance?
Its fold_change is 0.41.

What about the fold_change (gene Sca_2352, hypothetical protein) of the same substance?
The fold_change was 0.48.

What about the fold_change (gene Sca_2411) of the same substance?
The fold_change was 0.47.

And the fold_change (gene apbA, putative 2-dehydropantoate 2-reductase)?
Its fold_change is 0.47.

And the fold_change (gene aspS, aspartyl-tRNA synthetase)?
Its fold_change is 0.43.

What about the fold_change (gene atpD, F0F1 ATP synthase subunit beta) of the same substance?
Its fold_change is 0.41.

And the fold_change (gene capB, capsular polysaccharide biosynthesis protein)?
The fold_change was 0.43.

And the fold_change (gene ctaB, protoheme IX farnesyltransferase)?
Its fold_change is 0.41.

And the fold_change (gene cysE, serine acetyltransferase)?
Its fold_change is 0.46.

And the fold_change (gene deoD, purine nucleoside phosphorylase)?
The fold_change was 0.48.

What about the fold_change (gene engB (SCA_1279), ribosome biogenesis GTP-binding protein YsxC) of the same substance?
The fold_change was 0.47.

And the fold_change (gene fbp, putative fructose-bisphosphatase)?
The fold_change was 0.41.

And the fold_change (gene fecB, putative ferrichrome ABC transporter (binding protein))?
Its fold_change is 0.42.

What about the fold_change (gene fruB, putative fructose 1-phosphate kinase) of the same substance?
The fold_change was 0.42.

And the fold_change (gene gcvH (gcdH), glycine cleavage system protein H)?
The fold_change was 0.45.

What about the fold_change (gene gcvPB' (gcvPB''), glycine dehydrogenase [decarboxylating] subunit 2(fragment 1)) of the same substance?
Its fold_change is 0.43.

And the fold_change (gene gntR, putative gluconate operon transcriptional repressor)?
Its fold_change is 0.47.

What about the fold_change (gene gudB, NAD-specific glutamate dehydrogenase) of the same substance?
The fold_change was 0.47.
